The supplement of paper PMC6045584
± gives the standard deviation of the averaged measurements.

The test systems below were run with T1, Cc1ccc(-c2cc(C(F)(F)F)nn2-c2ccc(S(N)(=O)=O)cc2)cc1 [CELECOXIB] (assay: surviving fraction relative to DMSO-only wells; higher = less growth inhibition). Details: 100 nM; exposure time: 5 days.
Procedure, shortened: (§1)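 For each tumour cell line, log-phase cells were put into 384-well plates at 250–500 cells per well, then after 24 hours exposed continuously for five days to inhibitors at 0.5, 1, 5, 10, 50, 100, 500 and 1000 nM. Viability was assessed by CellTiter-Glo luminescence, with surviving fraction expressed relative to the median of DMSO-only wells. Lines were screened three times and retained only if replicate Pearson r exceeded 0.7 and median Z' exceeded 0.3.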

Q: With SUM149 BREAST as the test system, how does the surviving fraction read?
A: 1.09 ± 0.13

Same assay, conditions: 500 nM; exposure time: 5 days

Q: With C33A CERVIX as the test system, how does the surviving fraction read?
A: 0.981 ± 0.13

Q: For HCC70 BREAST, which surviving fraction is on record?
A: 1.2 ± 0.14

Q: How did the surviving fraction turn out when HCC1395 BREAST was run?
A: 1.25 ± 0.053

Q: With HCC1954 BREAST as the test system, how does the surviving fraction read?
A: 1.08 ± 0.024

Q: Which surviving fraction does the source give for SUM149 BREAST here?
A: 1.06 ± 0.04

Same assay, conditions: 1000 nM; exposure time: 5 days

Q: C33A CERVIX was tested. Which surviving fraction did it give?
A: 1.11 ± 0.035

Q: Which surviving fraction does the source give for HCC70 BREAST here?
A: 1.18 ± 0.038

Q: HCC1395 BREAST was tested. Which surviving fraction did it give?
A: 1.21 ± 0.037

Q: How did the surviving fraction turn out when HCC1954 BREAST was run?
A: 0.859 ± 0.088

Q: SUM149 BREAST was tested. Which surviving fraction did it give?
A: 1.12 ± 0.13

The test systems below were run with T2, O=C(O)C1(C(=O)O)CCC1.[NH2-].[NH2-].[Pt+2] [CARBOPLATIN] in the same assay as above. Details: 0.5 nM; exposure time: 5 days.
Procedure, shortened: as §1

Q: For C33A CERVIX, which surviving fraction is on record?
A: 1.14 ± 0.063

Q: HCC70 BREAST was tested. Which surviving fraction did it give?
A: 1.04 ± 0.049

Q: HCC1395 BREAST was tested. Which surviving fraction did it give?
A: 1.16 ± 0.058

Q: HCC1954 BREAST was tested. Which surviving fraction did it give?
A: 1.36 ± 0.11

Q: For SUM149 BREAST, which surviving fraction is on record?
A: 1.02 ± 0.019

Same assay, conditions: 1 nM; exposure time: 5 days

Q: For C33A CERVIX, which surviving fraction is on record?
A: 1.14 ± 0.085

Q: HCC70 BREAST was tested. Which surviving fraction did it give?
A: 1.07 ± 0.078

Q: HCC1395 BREAST was tested. Which surviving fraction did it give?
A: 1.1 ± 0.044

Q: How did the surviving fraction turn out when HCC1954 BREAST was run?
A: 1.02 ± 0.072

Q: For SUM149 BREAST, which surviving fraction is on record?
A: 1.04 ± 0.13

Same assay, conditions: 5 nM; exposure time: 5 days

Q: Which surviving fraction does the source give for C33A CERVIX here?
A: 1.19 ± 0.082

Q: With HCC70 BREAST as the test system, how does the surviving fraction read?
A: 1.13 ± 0.14

Q: With HCC1395 BREAST as the test system, how does the surviving fraction read?
A: 1.16 ± 0.071

Q: Which surviving fraction does the source give for HCC1954 BREAST here?
A: 1.4 ± 0.31

Q: How did the surviving fraction turn out when SUM149 BREAST was run?
A: 1.02 ± 0.049

Same assay, conditions: 10 nM; exposure time: 5 days

Q: C33A CERVIX was tested. Which surviving fraction did it give?
A: 1.43 ± 0.17

Q: For HCC70 BREAST, which surviving fraction is on record?
A: 1.13 ± 0.05

Q: HCC1395 BREAST was tested. Which surviving fraction did it give?
A: 1.198 ± 0.0097

Q: With HCC1954 BREAST as the test system, how does the surviving fraction read?
A: 1.52 ± 0.31

Q: With SUM149 BREAST as the test system, how does the surviving fraction read?
A: 0.943 ± 0.074

Same assay, conditions: 50 nM; exposure time: 5 days

Q: With C33A CERVIX as the test system, how does the surviving fraction read?
A: 1.21 ± 0.066

Q: With HCC70 BREAST as the test system, how does the surviving fraction read?
A: 1.19 ± 0.064

Q: HCC1395 BREAST was tested. Which surviving fraction did it give?
A: 1.15 ± 0.16

Q: How did the surviving fraction turn out when HCC1954 BREAST was run?
A: 1.05 ± 0.15

Q: With SUM149 BREAST as the test system, how does the surviving fraction read?
A: 0.909 ± 0.06

Same assay, conditions: 100 nM; exposure time: 5 days

Q: With C33A CERVIX as the test system, how does the surviving fraction read?
A: 1.43 ± 0.13

Q: HCC70 BREAST was tested. Which surviving fraction did it give?
A: 0.999 ± 0.049

Q: HCC1395 BREAST was tested. Which surviving fraction did it give?
A: 1.18 ± 0.062

Q: Which surviving fraction does the source give for HCC1954 BREAST here?
A: 0.954 ± 0.013

Q: How did the surviving fraction turn out when SUM149 BREAST was run?
A: 0.905 ± 0.076

Same assay, conditions: 500 nM; exposure time: 5 days

Q: With C33A CERVIX as the test system, how does the surviving fraction read?
A: 1.15 ± 0.051

Q: With HCC70 BREAST as the test system, how does the surviving fraction read?
A: 1.06 ± 0.082

Q: HCC1395 BREAST was tested. Which surviving fraction did it give?
A: 1.17 ± 0.13

Q: For HCC1954 BREAST, which surviving fraction is on record?
A: 1.07 ± 0.062

Q: How did the surviving fraction turn out when SUM149 BREAST was run?
A: 0.927 ± 0.057

Same assay, conditions: 1000 nM; exposure time: 5 days

Q: Which surviving fraction does the source give for C33A CERVIX here?
A: 1.31 ± 0.024

Q: How did the surviving fraction turn out when HCC70 BREAST was run?
A: 1.02 ± 0.054

Q: How did the surviving fraction turn out when HCC1395 BREAST was run?
A: 1.04 ± 0.1

Q: HCC1954 BREAST was tested. Which surviving fraction did it give?
A: 0.836 ± 0.12

Q: SUM149 BREAST was tested. Which surviving fraction did it give?
A: 0.927 ± 0.077

The test systems below were run with CC(=O)NCC(=O)N1[C@@H]2CC[C@H]1c1ccc(Nc3ncc(C(F)(F)F)c(NC4CCC4)n3)cc12 (assay: area under dose-response curve of surviving fraction (unscaled, Aref=0) (surviving fraction x log10(nM)); higher = more resistant). Details: exposure time: 5 days; dose range 0.5-1000 nM.
Procedure, shortened: (§2)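 Tumour cell lines in 384-well plates were exposed for five days to eight inhibitor concentrations from 0.5 to 1000 nM. Viability was read by CellTiter-Glo luminescence, normalised to DMSO-only wells, in three screens per line. Dose-response survival curves were fitted to surviving fractions by 3-parameter logistic regression in the drc R package. Area under the curve is the unscaled activity area (Aref = 0) over log10 dose.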

Q: With C33A CERVIX as the test system, how does the “area under dose-response curve” value read?
A: 2.24

Q: With HCC70 BREAST as the test system, how does the “area under dose-response curve” value read?
A: 2.46

Q: Which “area under dose-response curve” value does the source give for HCC1395 BREAST here?
A: 3.19

Q: Which “area under dose-response curve” value does the source give for HCC1954 BREAST here?
A: 3.09

Q: How did the “area under dose-response curve” value turn out when HS57T LUNG was run?
A: 2.46

Q: SUM149 BREAST was tested. Which “area under dose-response curve” value did it give?
A: 2.36

What follows are test systems tested with CC(=O)O[C@H]1C(=O)[C@@]2(C)[C@H]([C@H](OC(=O)c3ccccc3)[C@]3(O)C[C@H](OC(=O)[C@H](O)[C@@H](NC(=O)c4ccccc4)c4ccccc4)C(C)=C1C3(C)C)[C@]1(OC(C)=O)CO[C@@H]1C[C@@H]2O [PACLITAXEL] in the same assay as above. Details: exposure time: 5 days; dose range 0.5-1000 nM.
Procedure, shortened: as §2

Q: How did the “area under dose-response curve” value turn out when C33A CERVIX was run?
A: 0.98

Q: How did the “area under dose-response curve” value turn out when HCC70 BREAST was run?
A: 0.799

Q: Which “area under dose-response curve” value does the source give for HCC1395 BREAST here?
A: 1.76

Q: With HCC1954 BREAST as the test system, how does the “area under dose-response curve” value read?
A: 0.63

Q: Which “area under dose-response curve” value does the source give for HS57T LUNG here?
A: 0.449

Q: How did the “area under dose-response curve” value turn out when SUM149 BREAST was run?
A: 0.407

Each test system was assayed with CC(=O)c1c(C)c2cnc(Nc3ccc(N4CCNCC4)cn3)nc2n(C2CCCC2)c1=O in the same assay as above. Details: exposure time: 5 days; dose range 0.5-1000 nM.
Procedure, shortened: as §2

Q: For C33A CERVIX, which “area under dose-response curve” value is on record?
A: 3.67

Q: HCC70 BREAST was tested. Which “area under dose-response curve” value did it give?
A: 3.53

Q: How did the “area under dose-response curve” value turn out when HCC1395 BREAST was run?
A: 3.96

Q: For HCC1954 BREAST, which “area under dose-response curve” value is on record?
A: 3.1

Q: Which “area under dose-response curve” value does the source give for HS57T LUNG here?
A: 3.56

Q: For SUM149 BREAST, which “area under dose-response curve” value is on record?
A: 3.23

The test systems below were run with CC[C@@]1(O)C(=O)OCc2c1cc1n(c2=O)Cc2cc3ccccc3nc2-1 [CAMPTOTHECIN] in the same assay as above. Details: exposure time: 5 days; dose range 0.5-1000 nM.
Procedure, shortened: as §2

Q: How did the “area under dose-response curve” value turn out when C33A CERVIX was run?
A: 1.24

Q: How did the “area under dose-response curve” value turn out when HCC70 BREAST was run?
A: 1.9

Q: Which “area under dose-response curve” value does the source give for HCC1395 BREAST here?
A: 2.09

Q: Which “area under dose-response curve” value does the source give for HCC1954 BREAST here?
A: 0.947

Q: With HS57T LUNG as the test system, how does the “area under dose-response curve” value read?
A: 1.43

What follows are test systems tested with COCC[n+]1c2c(n(Cc3cnccn3)c1C)C(=O)c1ccccc1C2=O [YM155] in the same assay as above. Details: exposure time: 5 days; dose range 0.5-1000 nM.
Procedure, shortened: as §2

Q: For C33A CERVIX, which “area under dose-response curve” value is on record?
A: 0.324

Q: Which “area under dose-response curve” value does the source give for HCC70 BREAST here?
A: 2.27

Q: HCC1395 BREAST was tested. Which “area under dose-response curve” value did it give?
A: 2.28

Q: Which “area under dose-response curve” value does the source give for HCC1954 BREAST here?
A: 1.4

Q: For HS57T LUNG, which “area under dose-response curve” value is on record?
A: 1.67

Q: How did the “area under dose-response curve” value turn out when SUM149 BREAST was run?
A: 1.31

The test systems below were run with COc1cc2ncnc(Nc3ccc(F)c(Cl)c3)c2cc1OCCCN1CCOCC1 [GEFITINIB] in the same assay as above. Details: exposure time: 5 days; dose range 0.5-1000 nM.
Procedure, shortened: as §2

Q: How did the “area under dose-response curve” value turn out when C33A CERVIX was run?
A: 2.98

Q: HCC1395 BREAST was tested. Which “area under dose-response curve” value did it give?
A: 3.91

Q: Which “area under dose-response curve” value does the source give for HCC1954 BREAST here?
A: 2.73

Q: HS57T LUNG was tested. Which “area under dose-response curve” value did it give?
A: 3.31

Q: SUM149 BREAST was tested. Which “area under dose-response curve” value did it give?
A: 2.81

The test systems below were run with C[C@]1(O)C[C@@H](c2nc(-c3ccc4ccc(-c5ccccc5)nc4c3)c3c(N)nccn32)C1 [OSI-906] in the same assay as above. Details: exposure time: 5 days; dose range 0.5-1000 nM.
Procedure, shortened: as §2

Q: How did the “area under dose-response curve” value turn out when C33A CERVIX was run?
A: 3.42

Q: With HCC70 BREAST as the test system, how does the “area under dose-response curve” value read?
A: 3.29

Q: HCC1954 BREAST was tested. Which “area under dose-response curve” value did it give?
A: 1.26

Q: Which “area under dose-response curve” value does the source give for HS57T LUNG here?
A: 2.92

Q: With SUM149 BREAST as the test system, how does the “area under dose-response curve” value read?
A: 2.61

What follows are test systems tested with T1, CELECOXIB in the same assay as above. Details: exposure time: 5 days; dose range 0.5-1000 nM.
Procedure, shortened: as §2

Q: C33A CERVIX was tested. Which “area under dose-response curve” value did it give?
A: 3.25

Q: How did the “area under dose-response curve” value turn out when HCC70 BREAST was run?
A: 3.62

Q: For HCC1395 BREAST, which “area under dose-response curve” value is on record?
A: 4.09

Q: How did the “area under dose-response curve” value turn out when HCC1954 BREAST was run?
A: 3.51

Q: With HS57T LUNG as the test system, how does the “area under dose-response curve” value read?
A: 3.47

Q: How did the “area under dose-response curve” value turn out when SUM149 BREAST was run?
A: 3.68

What follows are test systems tested with T2, CARBOPLATIN in the same assay as above. Details: exposure time: 5 days; dose range 0.5-1000 nM.
Procedure, shortened: as §2

Q: C33A CERVIX was tested. Which “area under dose-response curve” value did it give?
A: 4.12

Q: With HCC70 BREAST as the test system, how does the “area under dose-response curve” value read?
A: 3.56

Q: Which “area under dose-response curve” value does the source give for HCC1395 BREAST here?
A: 3.87

Q: With HCC1954 BREAST as the test system, how does the “area under dose-response curve” value read?
A: 3.62

Q: For HS57T LUNG, which “area under dose-response curve” value is on record?
A: 3.58

Q: SUM149 BREAST was tested. Which “area under dose-response curve” value did it give?
A: 3.13
